Assay results: a melting point compilation (Tetko et al.)

| SMILES | melting point [°C] |
| --- | --- |
| COC(=O)c1ccc(OCc2ccccc2)c(N)c1 | 96 to 98 |
| N#CCCN(C(=O)CCl)c1ccc(F)cc1 | 85 to 87 |
| Nc1cccc(S(=O)(=O)Nc2cccc(Cl)c2)c1 | 107 to 109 |
| CC(=O)Nc1cccc(C(C)N)c1 (stereo unspecified) | 59 to 61 |
| ClC1=Nc2c(cnn2-c2ccccc2)CN1 | 189 to 191 |
| O=C(O)c1ccc(C2CC2)s1 | 111 to 113 |
| Nc1cc(Cl)ccc1C(=O)N1CCCC1 | 118 to 120 |
| O=C(O)CNC(=O)c1ccccn1 | 167 to 169 |
| CC(C)C(C(=O)O)c1ccc(F)cc1 (stereo unspecified) | 59 to 61 |
| CCNC(=O)c1cccnc1Cl | 47 to 49 |
| CCOc1cc(Br)c(C=O)cc1OCC | 71 to 72 |
| O=C(O)COc1cc(C(F)(F)F)cc(C(F)(F)F)c1 | 102 to 104 |
| Nc1ccn(CC(F)(F)F)n1 | 39 to 41 |
| COc1ccc(NC(=O)c2c(N)sc3c2CCCC3)cc1 | 158 to 160 |
| O=S1(=O)CCCN1c1cccc(Br)c1 | 74 to 76 |
| COc1cccc(C(=O)NN)c1OC | 77 to 79 |
| Oc1ccccc1-c1nnc2n1CCCCC2 | 271 to 273 |
| Nc1cc(C2CCC2)no1 | 77 to 79 |
| CC(C)c1cc(N)on1 | 33 to 35 |
| N#Cc1cccc(N2CCOC2=O)c1 | 102 to 104 |
| O=C(O)CCc1nc2ccccc2s1 | 97 to 99 |
| COc1ccccc1OCCC(=O)O | 133 to 135 |
| O=C(O)C1CC(=O)N(Cc2ccccc2)C1 (stereo unspecified) | 140 to 144 |
| Sc1nc2ccccc2nc1S | 345 to 347 |
| COC(=O)C#Cc1ccc(F)cc1F | 58 to 60 |

| SMILES | melting point [°C] |
| --- | --- |
| O=C(O)C1=CCCSC1 | 103 to 105 |
| COc1cc(C(N)=NO)ccc1O | 147 to 149 |
| O=CC1=C(N2CCOCC2)C(=Cc2ccccc2)CC1 | 141 to 143 |
| CC(CC(=O)O)c1ccncc1 (stereo unspecified) | 171 to 173 |
| COc1ccc(OC)c2[nH]c(C(=O)O)cc12 | 201 to 203 |
| CN(C)C(C)(C(=O)O)c1ccc(F)cc1 (stereo unspecified) | 234 to 236 |
| Cc1cc(Cl)c(CCl)c(Cl)n1 | 45 to 47 |
| CCC1(CC)CC(=O)NC1=O | 82 to 84 |
| COC(=O)C(C(=O)OC)c1ccc(C(F)(F)F)cc1[N+](=O)[O-] | 63 to 65 |
| Cc1nc2cc(F)ccc2cc1C(=O)O | 262 to 264 |
| Ic1ccc(OCc2ccc3ncccc3c2)cc1 | 161 to 163 |
| CC(C)(C)c1ccc(C(=O)C(=O)O)cc1 | 67 to 69 |
| CCCC(C(=O)O)N1CCN(C(=O)OC(C)(C)C)CC1 (stereo unspecified) | 149 to 151 |
| CNC(=Nc1cc(C)nn1-c1ccccc1)c1ccc(F)cc1 | 227 to 228 |
| CN1N=C(c2ccncc2)CC1=O | 209 to 211 |
| N#Cc1cc(Cl)ccc1OCC(F)(F)F | 66 to 68 |
| COc1ccc(N)cc1NC(=O)C1CCCCC1 | 147 to 149 |
| CC(Cl)C(=O)Nc1c(Cl)cccc1Cl (stereo unspecified) | 144 to 146 |
| CCN(CC)S(=O)(=O)CC(=O)O | 59 to 61 |
| CC(=O)c1ccc(C)c(S(N)(=O)=O)c1 | 144 to 146 |
| Nc1ncncc1-c1ccc(Cl)cc1 | 195 to 197 |
| Nc1ccc(SCc2cccnc2)cc1 | 125 to 127 |
| O=C1NC(=O)C2(CCC(c3ccccc3)CC2)N1 (stereo unspecified) | 250 to 252 |
| O=C(CS)Nc1ccccn1 | 93 to 95 |
| CC(C)(C)NC(=O)CC1(C(=O)O)CCCC1 | 201 to 203 |

| SMILES | melting point [°C] |
| --- | --- |
| CC(C)C(C)(CC(=O)N1CCOCC1)C(=O)O (stereo unspecified) | 134 to 136 |
| O=C(O)c1cccc(-c2ccoc2)c1 | 144 to 146 |
| O=C1CCS(=O)CC1 | 62 to 64 |
| Cc1ccnc(NC(=O)C2CCNCC2)c1 | 134 to 136 |
| CSc1ccc([N+](=O)[O-])c(C(=O)O)c1 | 176 to 178 |
| Cc1nc(O)nc(C)c1Br | 210 to 212 |
| CCc1ccc(C(=O)N2CCC(C(=O)O)CC2)o1 | 112 to 114 |
| O=C(O)Cc1cccc(OCc2ccccn2)c1 | 123 to 125 |
| O=C(Nc1ccccc1)c1cccc(O)c1 | 151 to 153 |
| Cc1cc(C(=O)NC2CCCC2)ccc1N | 146 to 148 |
| Cc1ccnc2nc(C(=O)O)nn12 | 240 to 242 |
| O=C(O)C(NCc1ccccc1)c1ccc(C(F)(F)F)cc1 (stereo unspecified) | 230 to 232 |
| COCCn1nc(C)c(C(C)=O)c1C | 31 to 33 |
| Cc1nn(-c2ccccc2)c(N)c1-c1ccccc1 | 82 to 84 |
| O=C(O)CN1CSCC1=O | 171 to 173 |
| COc1ccc(CCn2c(S)nc3ccccc3c2=O)cc1OC | 223 to 225 |
| O=C(O)c1ccc(OCC(=O)C2CC2)cc1 | 157 to 159 |
| Nc1nccc(C(F)(F)F)n1 | 174 to 178 |
| COC(=O)c1cccc(S(=O)(=O)Cl)c1 | 51 to 53 |
| Cc1nn2c(nc(Cl)c3ccccc32)c1Cl | 176 to 178 |
| CCCOC(=O)c1cc(-c2cncnc2)ccc1N | 145 to 147 |
| COc1cc(S(=O)(=O)Cl)ccc1Br | 65 to 67 |
| O=C(O)c1ccc(OC2CCCC2)nc1 | 165 to 167 |
| COc1ccc(-c2ccc(C#N)c(=O)[nH]2)cc1OC | 272 to 274 |
| Cc1cc(-c2nc3ccccc3n2C)c(=O)[nH]n1 | 334 to 336 |

| SMILES | melting point [°C] |
| --- | --- |
| O=C(O)c1cc(Br)c[nH]1 | 169 to 171 |
| CCN(CC)C(=O)c1ccc(N)cc1Cl | 154 to 156 |
| Cc1ccc(C(=O)NC(CC(=O)O)c2ccccc2)cc1 (stereo unspecified) | 190 to 192 |
| O=[N+]([O-])c1c[nH]nc1-c1ccncc1 | 216 to 218 |
| COc1cc(OC)cc(N2CCC(N)C2=O)c1 (stereo unspecified) | 88 to 90 |
| CN(C)C(=O)c1cn[nH]c1N | 167 to 169 |
| CN(C)S(=O)(=O)c1cccc(S(=O)(=O)Cl)c1 | 97 to 99 |
| COc1ccccc1-c1ccc(C=O)cc1 | 49 to 51 |
| CC(C)(C)OC(=O)N1C(=O)NC(C)(C)C1=O | 152 to 154 |
| N#Cc1ccnc(OC2CCC2)c1 | 39 to 41 |
| Cc1ccc(C(=O)C(O)c2ccc(C)cc2)cc1 (stereo unspecified) | 88 to 90 |
| CC(O)C(C)c1ccc2ccccc2n1 (stereo unspecified) | 69 to 71 |
| CCn1nc(N)cc1C1CC1 | 111 to 113 |
| O=C(O)CCCNc1ccc([N+](=O)[O-])cc1 | 158 to 160 |
| Cc1cc(C(=O)CCl)c(C)n1CC(F)(F)F | 143 to 145 |
| c1cnc2c(c1)NCCCN2 | 84 to 86 |
| Nc1cc(C(=O)O)ccc1OC(F)F | 155 to 157 |
| CCOC(=O)c1noc(N)c1-c1ccccc1 | 105 to 117 |
| CCCN(C(=O)c1ccccc1N)C(C)C | 64 to 66 |
| CC(=O)CC(=O)Nc1ccc(C)cc1Cl | 89 to 91 |
| O=C(O)c1ccc(=O)n(Cc2ccccc2Cl)c1 | 182 to 184 |
| CCN(CC)S(=O)(=O)c1ccc(Cl)c([N+](=O)[O-])c1 | 88 to 91 |
| O=C(O)c1cc(F)ccc1I | 146 to 148 |
| CC(C(=O)O)=C1CCCC1 | 107 to 109 |
| Cn1cc(Br)nn1 | 99 to 101 |

| SMILES | melting point [°C] |
| --- | --- |
| CCNc1nc2cc(Cl)ccc2s1 | 118 to 120 |
| Nc1cc(Cl)ncn1 | 196 to 198 |
| CC(C)c1cnc(S)n1C | 124 to 126 |
| COc1ccccc1-c1nnc(S)n1C | 177 to 179 |
| Cc1cccc([N+](=O)[O-])c1I | 67 to 69 |
| N#Cc1ccc(-n2cc(C#N)c(N)n2)c(F)c1 | 258 to 260 |
| COc1ccc2c(O)c(C(=O)O)cnc2c1 | 269 to 271 |
| Fc1ccc(-n2nccc2Br)cc1 | 73 to 75 |
| CC1CC(C)CN(S(=O)(=O)c2ccc(NN)nc2)C1 (stereo unspecified) | 217 to 219 |
| Cc1cccc(NC(=S)NN)c1C | 170 to 172 |
| CC(C)c1nc(-c2cccc3ncccc23)n[nH]1 | 143 to 145 |
| Cc1cccc2c(CCN)c[nH]c12 | 125 to 127 |
| COC(=O)C1CCc2ccccc2C1=O (stereo unspecified) | 71 to 73 |
| C/C(=N\O)c1sc(C)nc1C | 131 to 133 |
| CC(=O)CC(=O)c1ccc(F)cc1 | 48 to 52 |
| OCc1cn(-c2ccccc2)nc1-c1ccccc1 | 91 to 93 |
| COC(=O)c1oc2ccccc2c1C | 70 to 72 |
| O=C(CC(=O)Nc1ccccc1F)Nc1ccccc1F | 158 to 160 |
| CCOc1ccc(S(N)(=O)=O)c2ccccc12 | 168 to 170 |
| Cc1sc2[nH]c(-c3ccc(Cl)nc3)nc(=N)c2c1C | 133 to 135 |
| Cc1ccc(S(=O)(=O)N2CCCCC2)cc1N | 106 to 110 |
| NC(=S)c1ccc(NC(=O)c2ccco2)cc1 | 258 to 260 |
| Fc1ccc(NCc2cccnc2)c(F)c1 | 87 to 89 |
| Clc1ccc2c(Cl)ncnc2c1 | 136 to 138 |
| Nc1nnns1 | 120 to 122 |

| SMILES | melting point [°C] |
| --- | --- |
| N#CCSc1ccc(C(=O)O)cc1 | 269 to 271 |
| CC(C)(C)OC(=O)NCCCC(N)=S | 94 to 96 |
| Nc1cc(-c2ccco2)ccc1F | 40 to 42 |
| CCc1sc(C(=O)O)cc1Br | 155 to 157 |
| O=c1ccc2ccc(Cl)c(Cl)c2[nH]1 | 241 to 243 |
| NCCn1ncc2ccccc2c1=O | 87 to 89 |
| CC(C)COc1cccc(C(=O)O)c1 | 85 to 89 |
| NC(CN1CCCC1=O)c1ccccc1 (stereo unspecified) | 99 to 101 |
| NC(=O)c1ccc(I)cc1 | 216 to 218 |
| O=C(NO)C1CCCC1 | 107 to 109 |
| O=C1Cc2ccccc2C(=O)N1 | 190 to 192 |
| O=C(O)CSCCc1ccccc1 | 56 to 58 |
| O=C(O)c1ccc(OCC2CCCO2)cc1 (stereo unspecified) | 130 to 132 |
| O=C1C=CC(=O)N1c1cccc([N+](=O)[O-])c1 | 129 to 131 |
| Cc1ccc(-n2cc(C=O)c(C(C)(C)C)n2)cc1 | 79 to 81 |
| CC(C)(C)NS(=O)(=O)Cc1cccc(N)c1 | 101 to 103 |
| Cc1coc(C=CC(=O)O)n1 | 103 to 105 |
| Fc1ccc(-n2c(S)nnc2-c2ccncc2)cc1 | 165 to 175 |
| O=C(CCCl)NCC(=O)c1ccccc1 | 120 to 122 |
| [N-]=[N+]=Nc1ccc(I)cc1 | 33 to 35 |
| CC1CNc2ccccc2N(Cc2ccccc2)C1=O (stereo unspecified) | 107 to 109 |
